# What was measured:
# HCT116 cells = experiment: Whole cell cytotoxicity assay, Sulforhodamine B; format: cell-based; details: Homo sapiens, HCT-116, HCT116, 96 hours incubation, SRB; for IC50: read-out: IC50 values in this assay (HCT116 cell growth); for GI50: read-out: GI50 HCT116 cell growth
# Summary of the method: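 HCT116 cells (500/well) in DMEM/10% FBS/2 mM glutamine were preincubated 24 h, then exposed to compound for 96 h at 37 °C, 5% CO2, in duplicate. Cells were fixed with TCA and stained with sulforhodamine B (A570). GI50, TGI and LC50 were derived relative to a time-zero plate and an untreated control.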
# [1] = target: T1, N-terminal GST-tagged recombinant human Flt3, residues 564-end (Homo sapiens, UniProt P36888); experiment: Flt3 kinase inhibition assay (33P-ATP filter assay); format: biochemical
# T1 construct: recombinant human Flt3, residues 564-end; GST (N); purchased Upstate USA Inc, 706 Forest Street, Charlottesville, Va
# T1 sequence (P36888 564-993 limits assumed): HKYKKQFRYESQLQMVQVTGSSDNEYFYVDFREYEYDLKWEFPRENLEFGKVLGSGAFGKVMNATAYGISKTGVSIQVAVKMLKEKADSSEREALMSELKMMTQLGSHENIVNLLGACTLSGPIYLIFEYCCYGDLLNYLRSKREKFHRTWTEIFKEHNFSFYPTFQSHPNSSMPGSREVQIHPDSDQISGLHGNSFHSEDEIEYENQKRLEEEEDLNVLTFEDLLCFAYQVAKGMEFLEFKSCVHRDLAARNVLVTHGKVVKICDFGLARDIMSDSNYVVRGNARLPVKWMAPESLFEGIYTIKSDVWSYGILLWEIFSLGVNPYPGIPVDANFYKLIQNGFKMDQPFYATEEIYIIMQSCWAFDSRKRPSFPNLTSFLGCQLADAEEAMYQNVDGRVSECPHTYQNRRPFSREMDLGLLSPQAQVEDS
# Summary of the method: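 Serial compound dilutions incubated 40 min at room temperature with 5-10 mU Flt3 kinase, 50 μM peptide substrate and [γ-33P]ATP/10 mM magnesium acetate, pH 7.0. Phosphoric acid stop, filter capture and scintillation counting; activity compared with uninhibited reactions.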
# [2] = target: T2, N-terminal His6-tagged recombinant human KDR, residues 790-end (Homo sapiens, UniProt P35968); experiment: KDR kinase inhibition assay (33P-ATP filter assay); format: biochemical
# T2 construct: recombinant human KDR, residues 790-end; His6 (N); purchased Upstate USA Inc, 706 Forest Street, Charlottesville, Va
# Summary of the method: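 His6-tagged human KDR (residues 790-end, 5-10 mU) with 0.33 mg/mL myelin basic protein in 8 mM MOPS pH 7.0, 0.2 mM EDTA, 10 mM magnesium acetate and [γ-33P]ATP; 40 min at room temperature. Stopped with phosphoric acid, filter-bound 33P counted; inhibition relative to no-inhibitor controls.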
# [3] = group with IC50 greater than 100 nM
# T2 sequence (P35968 790-1356 limits assumed): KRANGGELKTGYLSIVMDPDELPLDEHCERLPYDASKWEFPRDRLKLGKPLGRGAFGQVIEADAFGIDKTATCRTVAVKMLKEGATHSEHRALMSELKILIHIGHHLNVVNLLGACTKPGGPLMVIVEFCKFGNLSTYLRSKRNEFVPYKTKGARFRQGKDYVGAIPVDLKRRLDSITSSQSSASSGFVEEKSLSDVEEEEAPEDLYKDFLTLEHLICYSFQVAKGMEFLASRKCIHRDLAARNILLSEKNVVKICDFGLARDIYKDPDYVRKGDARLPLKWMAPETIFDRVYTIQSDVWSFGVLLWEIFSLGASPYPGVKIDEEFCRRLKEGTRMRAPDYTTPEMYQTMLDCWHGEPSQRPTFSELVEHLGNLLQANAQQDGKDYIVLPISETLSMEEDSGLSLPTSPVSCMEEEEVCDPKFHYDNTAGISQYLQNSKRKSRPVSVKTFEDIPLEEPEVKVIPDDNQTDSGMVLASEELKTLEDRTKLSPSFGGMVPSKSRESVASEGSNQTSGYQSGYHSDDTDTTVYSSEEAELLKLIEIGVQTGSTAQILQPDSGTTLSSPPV
IC50 ([1]; 40 minutes at room temperature),"IC50 [2, 3]",IC50 ([2]; 40 minutes at room temperature),"IC50 [1, 3]",Compound,IC50 (HCT116 cells),GI50 (HCT116 cells)
≤ 0.1 µM,≤ 1 µM,–,–,COCCN(C)c1cc(Nc2cc(C)[nH]n2)nc(-c2ccccc2Cl)n1 [Compound 63],1 to 10 µM,–
≤ 0.1 µM,≤ 1 µM,–,–,"COCCN(C)c1cc(Nc2cc(C)[nH]n2)nc(-c2cccc(C)c2)n1 [Compound 65, N^4-(2-methoxyethyl)-N^4-methyl-N^6-(5-methyl-1H-pyrazol-3-yl)-2-m-tolylpyrimidine-4,6-diamine]",1 to 10 µM,–
≤ 0.1 µM,≤ 1 µM,–,–,"COCCN(C)c1cc(Nc2cc(C)[nH]n2)nc(-c2ccc(OC)cc2)n1 [Compound 67, N^4-(2-methoxyethyl)-2-(4-methoxyphenyl)-N^4-methyl-N^6-(5-methyl-1H-pyrazol-3-yl)pyrimidine-4,6-diamine]",1 to 10 µM,–
≤ 0.1 µM,≤ 1 µM,–,–,"COCCN(C)c1cc(Nc2cc(C)[nH]n2)nc(-c2cccc(OC)c2)n1 [Compound 68, N^4-(2-methoxyethyl)-2-(3-methoxyphenyl)-N^4-methyl-N^6-(5-methyl-1H-pyrazol-3-yl)pyrimidine-4,6-diamine]",–,≤ 1 µM
≤ 0.1 µM,≤ 1 µM,–,–,"Cc1cc(Nc2cc(NC3CCOCC3)nc(-c3ccc(C(C)(C)C)cc3)n2)n[nH]1 [Compound 70, 2-(4-tert-butylphenyl)-N^4-(5-methyl-1H-pyrazol-3-yl)-N^6-(tetrahydro-2H-pyran-4-yl)pyrimidine-4,6-diamine]",1 to 10 µM,–
≤ 0.1 µM,–,–,–,"Cc1cc(Nc2cc(NC3CCOCC3)nc(-c3ccc(C(F)(F)F)cc3)n2)n[nH]1 [Compound 79, N^4-(5-methyl-1H-pyrazol-3-yl)-N^6-(tetrahydro-2H-pyran-4-yl)-2-(4-(trifluoromethyl)phenyl)pyrimidine-4,6-diamine]",1 to 10 µM,–
≤ 0.1 µM,≤ 1 µM,–,–,"Cc1cc(Nc2cc(NC3CCOCC3)nc(-c3cccc(C(F)(F)F)c3)n2)n[nH]1 [Compound 80, N^4-(5-methyl-1H-pyrazol-3-yl)-N^6-(tetrahydro-2H-pyran-4-yl)-2-(3-(trifluoromethyl)phenyl)pyrimidine-4,6-diamine]",1 to 10 µM,–
≤ 0.1 µM,≤ 1 µM,–,–,"Cc1cc(Nc2cc(NC3CCOCC3)nc(-c3ccccc3C(F)(F)F)n2)n[nH]1 [Compound 81, N^4-(5-methyl-1H-pyrazol-3-yl)-N^6-(tetrahydro-2H-pyran-4-yl)-2-(2-(trifluoromethyl)phenyl)pyrimidine-4,6-diamine]",1 to 10 µM,–
≤ 0.1 µM,≤ 1 µM,–,–,Cc1cc(Nc2cc(N3CCN(C)CC3)nc(-c3cc(F)cc(Cl)c3)n2)n[nH]1 [Compound 97],–,≤ 1 µM
≤ 0.1 µM,–,–,–,Cc1cc(Nc2cc(N3CCN(C)CC3)nc(-c3ccc(C(F)(F)F)cc3)n2)n[nH]1 [Compound 100],1 to 10 µM,–
≤ 0.1 µM,–,≤ 0.1 µM,–,"Cc1cc(Nc2cc(N3CCN(C)CC3)nc(-c3ccccc3C(F)(F)F)n2)n[nH]1 [Compound 102, N-(5-methyl-1H-pyrazol-3-yl)-6-(4-methylpiperazin-1-yl)-2-(2-(trifluoromethyl)phenyl)pyrimidin-4-amine]",1 to 10 µM,–
≤ 0.1 µM,≤ 1 µM,–,–,"Cc1cc(Nc2cc(N(C)CCN(C)C)nc(-c3ccc(C(C)(C)C)cc3)n2)n[nH]1 [Compound 103, 2-(4-tert-butylphenyl)-N^4-(2-(dimethylamino)ethyl)-N^4-methyl-N^6-(5-methyl-1H-pyrazol-3-yl)pyrimidine-4,6-diamine]",–,≤ 1 µM
≤ 0.1 µM,–,≤ 0.1 µM,–,Cc1cc(Nc2cc(N(C)CCN(C)C)nc(-c3cccc(N(C)C)c3)n2)n[nH]1 [Compound 107],1 to 10 µM,–
≤ 0.1 µM,≤ 1 µM,–,–,"Cc1cc(Nc2cc(N(C)CCN(C)C)nc(-c3cccc(C(F)(F)F)c3)n2)n[nH]1 [Compound 113, N^4-(2-(dimethylamino)ethyl)-N^4-methyl-N^6-(5-methyl-1H-pyrazol-3-yl)-2-(3-(trifluoromethyl)phenyl)pyrimidine-4,6-diamine]",–,≤ 1 µM
≤ 0.1 µM,≤ 1 µM,–,–,"COCCN(C)c1cc(Nc2cc(C)[nH]n2)nc(-c2ccc(N(C)C)cc2)n1 [Compound 118, 2-(4-(dimethylamino)phenyl)-N^4-(2-methoxyethyl)-N^4-methyl-N^6-(5-methyl-1H-pyrazol-3-yl)pyrimidine-4,6-diamine]",1 to 10 µM,–
–,≤ 1 µM,–,≤ 1 µM,"COCCN(C)c1cc(Nc2cc(C)[nH]n2)nc(-c2cccc(C(F)(F)F)c2)n1 [Compound 125, N^4-(2-methoxyethyl)-N^4-methyl-N^6-(5-methyl-1H-pyrazol-3-yl)-2-(3-(trifluoromethyl)phenyl)pyrimidine-4,6-diamine]",1 to 10 µM,–
≤ 0.1 µM,≤ 1 µM,–,–,"COCCN(C)c1cc(Nc2cc(C)[nH]n2)nc(-c2ccccc2C(F)(F)F)n1 [Example 126, N^4-(2-methoxyethyl)-N^4-methyl-N^6-(5-methyl-1H-pyrazol-3-yl)-2-(2-(trifluoromethyl)phenyl)pyrimidine-4,6-diamine]",1 to 10 µM,–
≤ 0.1 µM,≤ 1 µM,–,–,"Cc1cc(Nc2cc(NC3CCOCC3)nc(-c3cccc4ccccc34)n2)n[nH]1 [Example 127, N^4-(5-methyl-1H-pyrazol-3-yl)-2-(naphthalen-1-yl)-N^6-(tetrahydro-2H-pyran-4-yl)pyrimidine-4,6-diamine]",1 to 10 µM,–
≤ 0.1 µM,≤ 1 µM,–,–,"Cc1cc(Nc2cc(N3CCN(C)CC3)nc(-c3cccc4c3OCCO4)n2)n[nH]1 [Example 136, 2-(2,3-dihydrobenzo[b][1,4]dioxin-5-yl)-N-(5-methyl-1H-pyrazol-3-yl)-6-(4-methylpiperazin-1-yl)pyrimidin-4-amine]",1 to 10 µM,–
≤ 0.1 µM,≤ 1 µM,–,–,"Cc1cc(Nc2cc(N(C)CCN(C)C)nc(-c3ccc4ccccc4c3)n2)n[nH]1 [Example 142, N^4-(2-(dimethylamino)ethyl)-N^4-methyl-N^6-(5-methyl-1H-pyrazol-3-yl)-2-(naphthalen-2-yl)pyrimidine-4,6-diamine]",–,≤ 1 µM
≤ 0.1 µM,≤ 1 µM,–,–,"Cc1cc(Nc2cc(N(C)CCN(C)C)nc(-c3ccc4c(c3)OCO4)n2)n[nH]1 [Example 146, 2-(benzo[d][1,3]dioxol-5-yl)-N^4-(2-(dimethylamino)ethyl)-N^4-methyl-N^6-(5-methyl-1H-pyrazol-3-yl)pyrimidine-4,6-diamine]",–,≤ 1 µM
≤ 0.1 µM,≤ 1 µM,–,–,"COCCN(C)c1cc(Nc2cc(C)[nH]n2)nc(-c2cccc3ccccc23)n1 [Example 148, N^4-(2-methoxyethyl)-N^4-methyl-N^6-(5-methyl-1H-pyrazol-3-yl)-2-(naphthalen-1-yl)pyrimidine-4,6-diamine]",1 to 10 µM,–
≤ 0.1 µM,≤ 1 µM,–,–,"COCCN(C)c1cc(Nc2cc(C)[nH]n2)nc(-c2ccc3ccccc3c2)n1 [Example 149, N^4-(2-methoxyethyl)-N^4-methyl-N^6-(5-methyl-1H-pyrazol-3-yl)-2-(naphthalen-2-yl)pyrimidine-4,6-diamine]",1 to 10 µM,–
≤ 0.1 µM,≤ 1 µM,–,–,"COCCN(C)c1cc(Nc2cc(C)[nH]n2)nc(-c2cccc3c2OCCO3)n1 [Example 150, 2-(2,3-dihydrobenzo[b][1,4]dioxin-5-yl)-N^4-(2-methoxyethyl)-N^4-methyl-N^6-(5-methyl-1H-pyrazol-3-yl)pyrimidine-4,6-diamine]",1 to 10 µM,–
≤ 0.1 µM,≤ 1 µM,–,–,"Cc1cc(Nc2cc(N3CCN(C)CC3)nc(-c3ccc(-c4ccccc4)cc3)n2)n[nH]1 [Example 157, 2-(biphenyl-4-yl)-N-(5-methyl-1H-pyrazol-3-yl)-6-(4-methylpiperazin-1-yl)pyrimidin-4-amine]",–,≤ 1 µM

# Reference: patent US20090029992A1, “SUBSTITUTED PYRAZOLE COMPOUNDS” (priority 2007, published 2009)
